{
  "source": "patent US20150150769A1",
  "about": "“COSMETIC COMPOSITIONS COMPRISING DITERPENOIC ACIDS, E.G. GIBBERELLIC ACIDS” (Cutech S.r.L., priority 2011, published 2015)",
  "key": {"[1]": {"test_system": "Human anagen hair follicles", "test": "Histological analysis of hair follicles (anagen/catagen stage, dermopapilla morphology)", "type": "cell-based", "conditions": "for Anagen phase / Catagen phase: after 9 days of cultivation", "procedure": "(§1) Human anagen hair follicles were isolated from scalp skin taken from a single donor and transferred for cultivation in sterile 24 well plates using a modified Williams' Medium E. Cultivation took place for nine days, while the experimental treatment of the follicles started 24 hours from the beginning of the cultivation. Hair follicles were selected for the experiments after 18 h of cultivation. Only follicles showing a good vital stage and a growth of not less than 0.2 mm were considered suitable to be maintained in culture. All experimental groups and the control group were prepared by including 12 follicles, plated in 24 well plates at a density of 3 hair follicles (HFs) per well. […] The growth of the hair follicles was studied by performing image analyses on microphotographs. All hair follicles were photographed at day 5 of culture (day 4 of treatment) and then at day 9 of culture (day 8 of treatment).\nThe experiment according to Examples 1 to 3 was terminated after 9 days of cultivation. Subsequently, the hair follicles were subjected to histological analysis by staining with haematossilin and eosin in order to verify the morphological state of the dermopapilla."}, "[2]": {"test_system": "Human anagen hair follicles", "test": "Growth (elongation) of cultured isolated human hair follicles", "type": "cell-based", "procedure": "as §1"}},
  "data": [
    {"compound": "C=C1C[C@]23C[C@@]1(O)CC[C@H]2[C@@]12C=C[C@H](O)[C@@](C)(C(=O)O1)[C@H]2[C@@H]3C(=O)O", "note": "[Gibberellin, Gibberellic acid]", "values": [
      {"measurement": "effect on decline of the hair follicles into the catagen phase", "setting": "[1]; Examples 13-14, 0.1 and 1 μg/ml, result in words", "result": "significantly anticipated the decline into the catagen phase"},
      {"measurement": "Anagen phase", "setting": "[1]; Table 6, Example 13, 0.1 μg/ml", "result": 22.2},
      {"measurement": "Catagen phase", "setting": "[1]; Table 6, Example 13, 0.1 μg/ml", "result": 77.8},
      {"measurement": "Anagen phase", "setting": "[1]; Table 6, Example 14, 1 μg/ml", "result": 9.1},
      {"measurement": "Catagen phase", "setting": "[1]; Table 6, Example 14, 1 μg/ml", "result": 90.9},
      {"measurement": "inhibition at 1 µg/mL", "setting": "[2]; Homo sapiens, Examples 1-3, 1 μg/ml, P<0.01, read-out: inhibitory action on hair growth in comparison with the untreated sample", "result": 19, "unit": "%"},
      {"measurement": "Growth of hair follicles: Elongation performance, Average", "setting": "[2]; Table 1, Examples 1-3, 0.01 μg/ml, day 9 of culture", "result": "88.2 ± 7.0 percentage of the control group"},
      {"measurement": "Growth of hair follicles: Elongation performance, Average", "setting": "[2]; Table 1, Examples 1-3, 0.1 μg/ml, day 9 of culture", "result": "85.6 ± 5.4 percentage of the control group"},
      {"measurement": "Growth of hair follicles: Elongation performance, Average", "setting": "[2]; Table 1, Examples 1-3, 1.0 μg/ml, day 9 of culture", "result": "80.6 ± 5.4 percentage of the control group"},
      {"measurement": "Growth of hair follicles: Elongation performance, Average", "setting": "[2]; Table 2, Examples 4-6, 0.01 μg/ml, 9 days of cultivation", "result": "81.4 ± 5.9 percentage of the control group"},
      {"measurement": "Growth of hair follicles: Elongation performance, Average", "setting": "[2]; Table 2, Examples 4-6, 0.1 μg/ml, 9 days of cultivation", "result": "89.8 ± 8.0 percentage of the control group"},
      {"measurement": "Growth of hair follicles: Elongation performance, Average", "setting": "[2]; Table 2, Examples 4-6, 1.0 μg/ml, 9 days of cultivation", "result": "82.7 ± 6.6 percentage of the control group"},
      {"measurement": "Growth of hair follicles: Elongation performance, Average", "setting": "[2]; Table 3, Examples 7-8, 0.1 μg/ml, 9 days of cultivation", "result": "76.6 ± 4.3 percentage of the control group"},
      {"measurement": "Growth of hair follicles: Elongation performance, Average", "setting": "[2]; Table 3, Examples 7-8, 1.0 μg/ml, 9 days of cultivation", "result": "69.9 ± 3.2 percentage of the control group"},
      {"measurement": "Growth of hair follicles: Elongation performance, Average", "setting": "[2]; Table 4, Examples 9-10, 0.1 μg/ml, 9 days of cultivation", "result": "77.7 ± 5.8 percentage of the control group"},
      {"measurement": "Growth of hair follicles: Elongation performance, Average", "setting": "[2]; Table 4, Examples 9-10, 1.0 μg/ml, 9 days of cultivation", "result": "72.3 ± 4.9 percentage of the control group"},
      {"measurement": "Growth of hair follicles: Elongation performance, Average", "setting": "[2]; Table 5, Examples 11-12, 0.1 μg/ml, 9 days of cultivation", "result": "91.3 ± 4.7 percentage of the control group"},
      {"measurement": "Growth of hair follicles: Elongation performance, Average", "setting": "[2]; Table 5, Examples 11-12, 1.0 μg/ml, 9 days of cultivation", "result": "79.9 ± 5.9 percentage of the control group"}
    ]},
    {"compound": "Gibberellic acid [Gibberellin]", "values": [
      {"measurement": "change of hair follicle growth in comparison to the control group", "setting": "[2]; Examples 7-8, 1 μg/ml, P<0.001", "result": "−30.1", "unit": "%"},
      {"measurement": "change of hair follicle growth in comparison to the control group", "setting": "[2]; Examples 9-10, 1 μg/ml, P<0.001", "result": "−27.7", "unit": "%"},
      {"measurement": "change of hair follicle growth in comparison to the control group", "setting": "[2]; Examples 11-12, 1 μg/ml, P<0.01", "result": "−20", "unit": "%"},
      {"measurement": "reduction of hair growth in comparison to the control group", "setting": "[2]; Examples 11-12, depending on the treatment dosage (0.1-1.0 μg/ml)", "result": "up to 20%"}
    ]}
  ]
}
